Results taken from publication PMC7177633, “Effective Cellular Transport of Ortho-Halogenated Sulfonamide Derivatives of Metformin Is Related to Improved Antiproliferative Activity and Apoptosis Induction in MCF-7 Cells” (International Journal of Molecular Sciences, 2020).
Read-outs that look alike come from different tables or passages of the source.

Columns and labels:
OCTs [1] = test: Inhibition of [14C]choline uptake in MCF-7 cells (competitive inhibition assay); assay type: cell-based, human; details: mean ± SD (n = 3)
Method: (§1) The following day, after removal of the culture medium, the cells were carefully washed with prewarmed HBSS (Hanks’ balanced salt solution) containing 125 mM NaCl, 4.8 mM KCl, 1.2 mM MgSO4, 1.2 mM KH2PO4, 1.3 mM CaCl2, 5.6 mM glucose and 25 mM HEPES (pH 7.4). […] Then, the cells were washed three times with ice-cold HBSS (500 μL) and were lysed with 250 μL of 0.1-M NaOH in the ice bath, and the lysate was mixed with 1.0 mL of an emulsifier safe cocktail (PerkinElmer, Waltham, MA, USA). The radioactivity was measured by liquid scintillation counting (MicroBeta^2 counter, PerkinElmer, Waltham, MA, USA). The studies were carried out with the use of at least three replicates from the same cell passage.

OCTs [2] = test: Inhibition of [14C]choline uptake in MDA-MB-231 cells (competitive inhibition assay); assay type: cell-based, human; details: mean ± SD (n = 3)
Method: as §1

MCF-7 cells [3] = test: Cellular uptake of metformin sulfonamides in MCF-7 cells (HPLC); assay type: in vitro ADME, human
Method: (§2) The uptake of metformin sulfonamides (1–9) in MCF-7 and MDA-MB-231 cells was studied by incubation of the cells with 10−3000 μmol/L of compounds in 250 μL of prewarmed HBSS buffer at 37 °C for 10 min. Subsequently, the cells were then washed three times with 500 μL of ice-cold HBSS and lysed with 250 μL of 0.1-M NaOH. The samples were collected, centrifuged (5 min, 1400 rpm) and the supernatants were analyzed by the HPLC method. The concentration of each compound in the cells was calculated on the basis of the standard curve prepared by spiking known amounts of every compound on the cell layers in 250 μL of 0.1-M NaOH.
(§3) The concentration of the studied sulfonamides (1–9) was assessed using the HPLC system, consisting of an Agilent 1100 binary pump (Agilent Technologies Inc., Wilmington, DE, USA), an 1100 micro-vacuum degasser, an HP 1050 autosampler and an HP 1050 variable wavelength detector (operated at 235 nm). The chromatographic separations of compounds 1–9 were conducted on an Agilent Zorbax SB-C18 analytical column (4.6 mm × 150 mm, 5 μm) using an isocratic elution of water containing 0.1% formic acid (pH ca. 3.0) and acetonitrile containing 0.1% formic acid with a changing ratio, depending on the compound. The analyses were conducted at room temperature (RT). The detailed procedure of chromatographic analysis was described in our previous paper. The studies were conducted in quadruplicates.
(§4) The protein concentrations in representative wells of each plate were assessed using a Bio-Rad protein assay according to the Bradford method (EnVision, PerkinElmer, Inc., Waltham, MA, USA).

MDA-MB-231 cells [4] = test: Cellular uptake of metformin sulfonamides in MDA-MB-231 cells (HPLC); assay type: in vitro ADME, human
Method: as §2, §3, §4

MCF-7 cells [5] = test: Uptake in the presence of OCT and MATE inhibitors, MCF-7 cells; assay type: in vitro ADME, human
Method: (§5) The uptake of sulfonamide derivatives of metformin (1–9) in MCF-7 and MDA-MB-231 cells was studied also in the presence of disopyramide, cimetidine (OCT1 and 3 inhibitors), lopinavir (OCT and PMAT inhibitor) and methenamine (MATE and OCT2 inhibitors). The cells were incubated (37 °C, 10 min) with compounds 1–9 at concentrations of 400 and 800 μmol/L and inhibitors (disopyramide, cimetidine, lopinavir or methenamine) in 250 μL of prewarmed HBSS buffer. The protocol of determination of the compound concentration was as described above.

MDA-MB-231 cells [6] = test: Uptake in the presence of OCT and MATE inhibitors, MDA-MB-231 cells; assay type: in vitro ADME, human
Method: as §5

MCF-7 cells [7] = test: Cell viability WST-1 assay, MCF-7; assay type: cell-based; details: Homo sapiens, MCF7; WST-1, 24 h, mean ± SD (n = 6–8); read-out: IC50 inhibition of MCF-7 cells' viability
Method: (§6) The viability of MCF-7 and MDA-MB-231 cells was determined using a colorimetric WST-1 assay (Takara, Takara Bio Europe, Saint-Germain-en-Laye, France). Both cell lines were seeded at a density of 1 × 10^4 per well on 96-well plates and were cultured for 24 h to obtain 70% confluence. The following day, the cells were treated with various concentrations of compounds 1–9 diluted in the cell culture medium ([…]). The cells were incubated with tested compounds or pure medium (control) for 24 h (37 °C, 5% CO2). Afterwards, the cells were washed with 100 μL of culture medium, and then, the reagent dissolved in the medium was added (100 μL). The plates were incubated at the standard condition for 1.5 h, and the absorbance was read at 450 nm using a microplate reader (iMARK, Bio-Rad, Bio-Rad Laboratories Inc., Hercules, CA, USA). […] The results of samples treated with the test compounds were expressed as a percentage of the control samples. The data were presented as mean ± standard deviation (SD), n = 8. IC50 values (the concentration of the tested compound that inhibited cell growth by 50%) were calculated using a concentration-response curve (GraphPad Prism, Software, San Diego, CA, USA).
(§7) The concentrations contributing to the 50% of cell growth inhibition (IC50) were calculated using nonlinear regression analysis (fitting the curve to log (concentration) vs. cellular response).

MDA-MB-231 cells [8] = test: Cell viability WST-1 assay, MDA-MB-231; assay type: cell-based; details: Homo sapiens, MDA-MB-231; WST-1, 24 h, mean ± SD (n = 6–8); read-out: IC50 inhibition of MDA-MB-231 cells' viability
Method: as §6, §7

MCF-7 cells [9] = test: Intracellular GSH and GSSG, MCF-7; assay type: cell-based, human; details: MCF-7, 24 h, reference agents: Ascorbic acid 200 µM, AAPH 10 mM
Method: (§8) The quantitative determination of glutathione and glutathione disulfide was performed using the enzymatic recycling method according to the protocol of Rahman. The cells were seeded at a density of 2 × 10^5 per well in a 6-well plate and cultured for 48 h. Then, the cells were treated with tested compounds 1, 4 and 7 at their respective ¼ and ½ IC50 values for MCF-7 and MDA-MB-231 cells. Additionally, controls with pure medium, AAPH (2,2′-Azobis(2-methylpropionamidine) dihydro-chloride, Sigma Aldrich, St. Louis, MO, USA) and ascorbic acid (Polish Chemical Reagents, Poland) were performed. The cells were incubated with compounds for another 24 h, then washed twice with 2 mL of cold, Ca^2+-/Mg^2+-free PBS (Biomed Lublin, Lublin, Poland). The cells were harvested using 1-mL accutase (Sigma Aldrich, St. Louis, MO, USA), and the wells were washed with 1 mL of cold growth medium. The cells were transferred to prechilled 2.0-mL Eppendorf tubes and centrifuged at 1000× g for 5 min at 4 °C. The supernatant was discarded, the pellets were resuspended in 1 mL of cold PBS, the number of cells was determined in each sample and the cellular suspension was centrifuged again. PBS was discarded, and the pellets were stored covered with 30-µL PBS at –70 °C. The following day, the cells were suspended in 0.5 mL of ice-cold extraction buffer (0.1% Triton-X (Polish Chemical Reagents, Gliwice, Poland) and 0.6% sulfosalicylic acid (Sigma Aldrich) in a potassium phosphate buffer with EDTA (Sigma Aldrich)) and sonicated in icy water for 3 min with vortexing every 30 s. The cells were frozen once again at −80 °C, defrosted on ice and frozen once again. Following the second freeze–thaw cycle, the cells were centrifuged at 1500× g for 5 min at 4 °C, and then, immediately, the supernatant was transferred to prechilled Eppendorf tubes. The samples were divided into two parts: one was used to measure GSH, and the other one was derivatized by an addition of 4 µL of 2-vinylpyridine (diluted 1:10 with phosphate buffer) (Sigma Aldrich, St. Louis, MO, USA) to determine the GSSG content.
(§9) GSH measurements included an addition of 20 µL of the tested sample, blank or GSH standard, 120 µL of the mixture of an equal volume of DTNB solution (2 mg dissolved in 3 mL of phosphate buffer, Sigma Aldrich) and glutathione reductase (10 U in 3 mL of phosphate buffer, Sigma Aldrich, St. Louis, MO, USA) and 30 s of incubation to allow the conversion of GSSG to GSH. The final step included the addition of 60 µL of β-NADPH (2 mg dissolved in 3 mL of phosphate buffer, Sigma Aldrich). The absorbance was read immediately at 415 nm in a microplate reader (Bio-Rad), and the measurements were taken every 30 s for 2 min (6 readings in total). The amount of GSH was calculated on the basis of the calibration curve prepared using GSH (Sigma Aldrich, St. Louis, MO, USA) at concentrations ranging from 0.040 to 2.6 nmol/mL.
(§10) The quantification of GSSG in the test samples was performed according to the same procedure as GSH. The samples treated with 2-VP were incubated for one hour at room temperature, and then, 20 µL of the tested sample was analyzed using the same reagents which were applied in the GSH measurements. The amount of GSSG was calculated on the basis of the calibration curve, prepared using GSSG (Sigma Aldrich) at concentrations of 0.040–2.6 nmol/mL. The results are presented as mean ± SD, n = 6–8 and expressed as nmol per […].

MDA-MB-231 cells [10] = test: Intracellular GSH and GSSG, MDA-MB-231; assay type: cell-based, human; details: MDA-MB-231, 24 h, reference agents: Ascorbic acid 200 µM, AAPH 10 mM
Method: as §8, §9, §10

[11] = Eadie-Hofstee analysis, transporter I
[12] = Eadie-Hofstee analysis, transporter II
[13] = compound and inhibitor 400 and 800 µmol/L, 10 min, 37 °C
[14] = summary from uptake with inhibitors

What does the source list for `CN(C)C(=N)N=C(N)NS(=O)(=O)c1cccc(Cl)c1` [Compound 2]?
IC50 (OCTs [1]): 2.923 ± 0.0091 mM; IC50 (OCTs [2]): 4.449 ± 0.0181 mM; uptake into MCF-7 cells (MCF-7 cells [3]; 800 μmol/L, 10 min incubation, 37 °C): 2.669 ± 0.040 nmol/min/mg protein; Vmax, transporter I, MCF-7 (MCF-7 cells [3]; [11]): 19.2 ± 2.31 nmol/min/mg; Km (MCF-7 cells [3]; Eadie-Hofstee analysis, transporter I, read-out: Km, transporter I, MCF-7): 4.01 ± 0.696 mM; Vmax, transporter II, MCF-7 (MCF-7 cells [3]; [12]): 24.91 ± 5.44 nmol/min/mg; Km (MCF-7 cells [3]; Eadie-Hofstee analysis, transporter II, read-out: Km, transporter II, MCF-7): 7.47 ± 1.82 mM; Vmax MCF-7 (Michaelis Menten curves) (MCF-7 cells [3]; Michaelis-Menten curve): 34.4 ± 17.2 nmol/min/mg; Km (MCF-7 cells [3]; Michaelis-Menten curve, read-out: Km MCF-7 (Michaelis Menten curves)): 9.05 ± 1.52 mM; uptake in MCF-7 cells relative to metformin (MCF-7 cells [3]; fold higher than parent drug metformin, 800 μmol/L): approximately 25 fold; Vmax, transporter I, MDA-MB-231 (MDA-MB-231 cells [4]; [11]): 0.077 ± 0.008 nmol/min/mg; Km (MDA-MB-231 cells [4]; Eadie-Hofstee analysis, transporter I, read-out: Km, transporter I, MDA-MB-231): 2.4 ± 0.353 mM; Vmax, transporter II, MDA-MB-231 (MDA-MB-231 cells [4]; [12]): 0.111 ± 0.016 nmol/min/mg; Km (MDA-MB-231 cells [4]; Eadie-Hofstee analysis, transporter II, read-out: Km, transporter II, MDA-MB-231): 5.47 ± 0.73 mM; Vmax MDA-231 cells (Michaelis Menten curves) (MDA-MB-231 cells [4]; Michaelis-Menten curve): 0.157 ± 0.129 nmol/min/mg; Km (MDA-MB-231 cells [4]; Michaelis-Menten curve, read-out: Km MDA-231 cells (Michaelis Menten curves)): 6.75 ± 1.73 mM; uptake in the presence of cimetidine, MCF-7 (MCF-7 cells [5]; [13]): inhibited; uptake in the presence of disopyramide, MCF-7 (MCF-7 cells [5]; [13]): profoundly elevated; uptake in the presence of lopinavir, MCF-7 (MCF-7 cells [5]; [13]): profoundly elevated; interactions with OCT, PMAT and MATE1 transporters, MCF-7 (MCF-7 cells [5]; [14]): OCT1, OCT3, PMAT; uptake in the presence of cimetidine, MDA-MB-231 (MDA-MB-231 cells [6]; [13]): no significant differences; uptake in the presence of disopyramide, MDA-MB-231 (MDA-MB-231 cells [6]; [13]): no significant differences; uptake in the presence of lopinavir, MDA-MB-231 (MDA-MB-231 cells [6]; [13]): no significant differences; uptake in the presence of methenamine, MDA-MB-231 (MDA-MB-231 cells [6]; [13]): no significant differences; interactions with OCT, PMAT and MATE1 transporters, MDA-MB-231 (MDA-MB-231 cells [6]; [14]): OCT1, OCT3; IC50 (MCF-7 cells [7]): 0.533 ± 0.0874 mM; IC50 (MDA-MB-231 cells [8]): 0.844 ± 0.135 mM

How did the GSH (MCF-7 cells [9]) turn out when `CC(C)(N=NC(C)(C)C(=N)N)C(=N)N.Cl.Cl` [AAPH, 2,2′-Azobis(2-methylpropionamidine) dihydrochloride, reference compound] was run?
Its GSH is 117.6 ± 7.8 nmol/1 mln Cells.

What about the “GSH:GSSG Ratio” value (MCF-7 cells [9]) of the same compound?
The value was 8.9.

And the GSSG (MCF-7 cells [9])?
Its GSSG is 12.8 ± 0.5 nmol/1 mln Cells.

And the GSH (MDA-MB-231 cells [10])?
The GSH was 102.7 ± 3.2 nmol/1 mln Cells.

What about the “GSH:GSSG Ratio” value (MDA-MB-231 cells [10]) of the same compound?
Its value is 6.9.

What about the GSSG (MDA-MB-231 cells [10]) of the same compound?
Its GSSG is 14.3 ± 1.9 nmol/1 mln Cells.
